# Results reported in ChEMBL document CHEMBL1201862, “PubChem BioAssay data set” (2004).
#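 Growth conditions: 96-well plates. Treatment: test compound, 48 hours, 5 concentrations. Analysis: linear interpolation between bracketing concentrations; unreached endpoints set to highest concentration. Abbreviation: GI50, concentration required for 50% inhibition of growth.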 Activity calls are given as the source filed them. No stated cut-off is given here; in the data, active = GI50 up to about 1.1 µM and inactive = higher.
# How the values were obtained:
# Experiment in all cases: inhibition of tumour cell growth, NCI panel, 48 h
# [1] = test system: SF-268
# [2] = test system: SF-539
# [3] = test system: SNB-78
# [4] = test system: SF-295
# [5] = test system: A498
# [6] = test system: UO-31
# [7] = test system: M14
# [8] = test system: A549
# [9] = test system: OVCAR-5
# [10] = test system: HOP-62
# [11] = test system: XF498
# [12] = test system: DMS-114
# [13] = test system: COLO 205
# [14] = test system: SK-MEL-2
# [15] = test system: NCI-H522
# [16] = test system: SK-OV-3
# [17] = test system: IGROV-1
# [18] = test system: SK-MEL-5
# [19] = test system: ACHN
# [20] = test system: EKVX
# [21] = test system: HCC 2998
# [22] = test system: UACC-62
# [23] = test system: SW-620
# [24] = test system: M19-MEL
# [25] = test system: HCT-116
# [26] = test system: HCT-15
# [27] = test system: OVCAR-4
# [28] = test system: RXF 393
# [29] = test system: OVCAR-8
# [30] = test system: CAKI-1
# [31] = test system: 786-0
# [32] = test system: KM12
# [33] = test system: SN12C
# [34] = test system: TK-10
# [35] = test system: SNB-75
# [36] = test system: HL-60
# [37] = test system: HOP-18
# [38] = test system: NCI-H23
# [39] = test system: OVCAR-3
# [40] = test system: HOP-92
# [41] = test system: NCI-H226
# [42] = test system: U-251
# [43] = test system: KM-20L2
# [44] = test system: DMS-273
# [45] = test system: UACC-257
# [46] = test system: NCI-H460
# [47] = test system: MOLT-4
# [48] = test system: Malme-3M
# [49] = test system: SNB-19
# [50] = test system: SK-MEL-28
# [51] = test system: HT-29
# [52] = test system: DLD-1
# [53] = test system: LXFL 529
# [54] = test system: LOX IMVI
# [55] = test system: SR
# [56] = test system: CCRF-CEM
# [57] = test system: RPMI-8226
# [58] = test system: K562
compound,measurement,setting,value
ClCCCCOC1CCCCO1 (centres undefined),GI50,[1],> 100 µM (inactive)
same,GI50,[2],> 100 µM (inactive)
same,GI50,[3],> 100 µM (inactive)
same,GI50,[4],> 100 µM (inactive)
same,GI50,[5],> 100 µM (inactive)
same,GI50,[6],> 100 µM (inactive)
same,GI50,[7],> 100 µM (inactive)
same,GI50,[8],> 100 µM (inactive)
same,GI50,[9],> 100 µM (inactive)
same,GI50,[10],> 100 µM (inactive)
same,GI50,[11],> 100 µM (inactive)
same,GI50,[12],> 100 µM (inactive)
same,GI50,[13],> 100 µM (inactive)
same,GI50,[14],> 100 µM (inactive)
same,GI50,[15],> 100 µM (inactive)
same,GI50,[16],> 100 µM (inactive)
same,GI50,[17],> 100 µM (inactive)
same,GI50,[18],> 100 µM (inactive)
same,GI50,[19],> 100 µM (inactive)
same,GI50,[20],> 100 µM (inactive)
same,GI50,[21],> 100 µM (inactive)
same,GI50,[22],> 100 µM (inactive)
same,GI50,[23],> 100 µM (inactive)
same,GI50,[24],> 100 µM (inactive)
same,GI50,[25],> 100 µM (inactive)
same,GI50,[26],> 100 µM
same,GI50,[27],> 100 µM (inactive)
same,GI50,[28],> 100 µM (inactive)
same,GI50,[29],> 100 µM (inactive)
same,GI50,[30],> 100 µM (inactive)
same,GI50,[31],> 100 µM (inactive)
same,GI50,[32],> 100 µM (inactive)
same,GI50,[33],> 100 µM (inactive)
same,GI50,[34],> 100 µM (inactive)
same,GI50,[35],> 100 µM (inactive)
same,GI50,[36],> 100 µM (inactive)
same,GI50,[37],> 100 µM (inactive)
same,GI50,[38],> 100 µM (inactive)
same,GI50,[39],> 100 µM (inactive)
same,GI50,[40],> 100 µM (inactive)
same,GI50,[41],> 100 µM (inactive)
same,GI50,[42],> 100 µM (inactive)
same,GI50,[43],> 100 µM (inactive)
same,GI50,[44],> 100 µM (inactive)
same,GI50,[45],> 100 µM (inactive)
same,GI50,[46],> 100 µM (inactive)
same,GI50,[47],> 100 µM (inactive)
same,GI50,[48],> 100 µM (inactive)
same,GI50,[49],> 100 µM (inactive)
same,GI50,[50],> 100 µM (inactive)
same,GI50,[51],> 100 µM (inactive)
same,GI50,[52],> 100 µM (inactive)
same,GI50,[53],> 100 µM (inactive)
CCOC(=O)C1C(c2ccc([N+](=O)[O-])cc2)NC(c2ccc([N+](=O)[O-])cc2)C(C(=O)OC)S1(=O)=O (centres undefined),GI50,[1],> 100 µM (inactive)
same,GI50,[3],> 100 µM (inactive)
same,GI50,[4],> 100 µM (inactive)
same,GI50,[54],> 100 µM (inactive)
same,GI50,[6],> 100 µM (inactive)
same,GI50,[7],> 100 µM (inactive)
same,GI50,[8],> 100 µM (inactive)
same,GI50,[9],> 100 µM (inactive)
same,GI50,[10],> 100 µM (inactive)
same,GI50,[11],> 100 µM (inactive)
same,GI50,[12],> 100 µM (inactive)
same,GI50,[13],> 100 µM (inactive)
same,GI50,[14],> 100 µM (inactive)
same,GI50,[15],> 100 µM (inactive)
same,GI50,[16],> 100 µM (inactive)
same,GI50,[17],> 100 µM (inactive)
same,GI50,[19],> 100 µM (inactive)
same,GI50,[20],> 100 µM (inactive)
same,GI50,[21],> 100 µM (inactive)
same,GI50,[22],> 100 µM (inactive)
same,GI50,[23],> 100 µM (inactive)
same,GI50,[24],> 100 µM (inactive)
same,GI50,[25],> 100 µM (inactive)
same,GI50,[26],> 100 µM
same,GI50,[55],> 100 µM (inactive)
same,GI50,[27],> 100 µM (inactive)
same,GI50,[28],> 100 µM (inactive)
same,GI50,[29],> 100 µM (inactive)
same,GI50,[30],> 100 µM (inactive)
same,GI50,[31],> 100 µM (inactive)
same,GI50,[32],> 100 µM (inactive)
same,GI50,[33],> 100 µM (inactive)
same,GI50,[34],> 100 µM (inactive)
same,GI50,[35],> 100 µM (inactive)
same,GI50,[36],> 100 µM (inactive)
same,GI50,[37],> 100 µM (inactive)
same,GI50,[56],> 100 µM (inactive)
same,GI50,[38],> 100 µM (inactive)
same,GI50,[39],> 100 µM (inactive)
same,GI50,[41],> 100 µM (inactive)
same,GI50,[42],> 100 µM (inactive)
same,GI50,[57],> 100 µM (inactive)
same,GI50,[43],> 100 µM (inactive)
same,GI50,[44],> 100 µM (inactive)
same,GI50,[45],> 100 µM (inactive)
same,GI50,[46],> 100 µM (inactive)
same,GI50,[47],> 100 µM (inactive)
same,GI50,[48],> 100 µM (inactive)
same,GI50,[49],> 100 µM (inactive)
same,GI50,[50],> 100 µM (inactive)
same,GI50,[51],> 100 µM (inactive)
same,GI50,[58],> 100 µM (inactive)
same,GI50,[52],> 100 µM (inactive)
same,GI50,[53],> 100 µM (inactive)
N#CC12CCC1C1CCCCC12N1CCSCC1 (centres undefined),GI50,[2],> 100 µM (inactive)
same,GI50,[3],> 100 µM (inactive)
same,GI50,[4],> 100 µM (inactive)
same,GI50,[5],> 100 µM (inactive)
same,GI50,[6],> 100 µM (inactive)
same,GI50,[8],> 100 µM (inactive)
same,GI50,[10],> 100 µM (inactive)
same,GI50,[11],> 100 µM (inactive)
same,GI50,[12],> 100 µM (inactive)
same,GI50,[13],> 100 µM (inactive)
same,GI50,[14],35.4 µM (inactive)
same,GI50,[17],> 100 µM (inactive)
same,GI50,[19],> 100 µM (inactive)
same,GI50,[21],> 100 µM (inactive)
same,GI50,[22],> 100 µM (inactive)
same,GI50,[23],> 100 µM (inactive)
same,GI50,[24],> 100 µM (inactive)
same,GI50,[25],> 100 µM (inactive)
same,GI50,[26],> 100 µM
same,GI50,[55],60.5 µM (inactive)
same,GI50,[27],> 10 µM (inactive)
same,GI50,[28],18.1 µM (inactive)
same,GI50,[29],> 100 µM (inactive)
same,GI50,[30],> 100 µM (inactive)
same,GI50,[31],> 100 µM (inactive)
same,GI50,[32],92.3 µM (inactive)
same,GI50,[33],> 100 µM (inactive)
same,GI50,[35],> 100 µM (inactive)
same,GI50,[36],16.3 µM (inactive)
same,GI50,[37],> 100 µM (inactive)
same,GI50,[56],> 100 µM (inactive)
same,GI50,[38],> 10 µM (inactive)
same,GI50,[39],> 100 µM (inactive)
same,GI50,[40],> 100 µM (inactive)
same,GI50,[42],> 100 µM (inactive)
same,GI50,[57],51.1 µM (inactive)
same,GI50,[43],> 100 µM (inactive)
same,GI50,[44],> 100 µM (inactive)
same,GI50,[45],> 10 µM (inactive)
same,GI50,[46],> 100 µM (inactive)
same,GI50,[47],81.8 µM (inactive)
same,GI50,[49],> 100 µM (inactive)
same,GI50,[50],> 100 µM (inactive)
same,GI50,[51],> 100 µM (inactive)
same,GI50,[58],76.6 µM (inactive)
same,GI50,[52],> 100 µM (inactive)
same,GI50,[53],> 100 µM (inactive)
